{
  "source": "patent US10632101B2",
  "about": "“Methods and compositions for supporting endogenous systems related to life span” (USANA Health Sciences, Inc., priority 2016, dated 2020)",
  "key": {"human NF-κB": {"system": "human NF-κB", "experiment": "NF-κB reporter cell assay, antagonist mode", "format": "cell-based"}, "C. elegans strain CB5586": {"system": "C. elegans strain CB5586", "experiment": "Phenotypic lifespan screening in C. elegans", "format": "in vivo", "conditions": "for Statistically Significant Result: 10 mg/ml compared to DMSO control; for effect on chronological lifespan: 0.1 and 10 mg/ml tested; for mean lifespan: DMSO control 13.23", "description": "Dilutions of the test formulations were applied to individual populations of C. elegans and the lifespan of each population was monitored. Any changes in the lifespan of an individual population compared to a control population were recorded and correlated to the respective test formulation (N356 or N357) and the respective dilution (0.1 mg/ml, 1 mg/ml, and 10 mg/ml).\nThe N256 and N357 formulations were each prepared as individual 100 mg/ml stock solutions in dimethyl sulfoxide (DMSO). Serial dilutions of each stock solution were then prepared at 0.1 mg/ml, 1 mg/ml, and 10 mg/ml in DMSO. Control solutions of DMSO only were also prepared. Synchronous aged adult populations of C. elegans strain CB5586 worms were prepared. The CB5586 strain comprises a pharyngeal GFP (green fluorescent protein) tag and a mutation in the bus-5 gene. The pharyngeal GFP tag allows for fluorescent images of the worm populations to be taken. The mutation in the bus-5 gene causes the loss of normal cuticle antigens that permits the cuticle of the worms to become permeable to the test formulations and allow direct uptake of the test formulations to avoid interaction of the test formulations with protective mechanisms of the gut channel. Each serial dilution of each test formulation was added to a separate population of the prepared worms. The control solutions were also added to separate populations of the prepared worms. The populations of the prepared worms were then maintained on standard nematode growth media (NGM) agar plates at 20° C. with sufficient food (Escherichia coli strain OP-50).\nEach worm population was then monitored by fluorescent imaging to determine the number of living and dead worms as a function of time. The fluorescent imaging was analyzed by software that recognized and counted worms based on their fluorescent intensity compared to background fluorescence. […] The ability to distinguish between living and dead worms allowed the number of living worms and a cumulative number of dead worms to be monitored against time. Worm populations from a selection of fluorescent images were manually checked to verify that the software had accurately counted the number of living and dead worms.\nThe counts of the living and dead worms as a function of time were then analyzed for each of the worm populations and used to prepare Kaplan-Meier survival curves and associated statistics for each of the worm populations. […] The median lifespan is shown as the length of time after the last mitotic division that 50% of the test population remains viable when compared to the control population. The maximum lifespan extension is shown as the length of time after the last mitotic division that 5% of the test population remains viable when compared to the control population.\nThe counts of the living and dead worms as a function of time and the Kaplan-Meier survival curves and the associated statistics were then analyzed for each of the worm populations. The analysis included determining mean and median lifespan. The analysis included a non-parametric test, the Log-Rank test, which compares two survival functions for the overall lifespan assay and provides a reliable p-value summarizing the whole experiment. The analysis also included Fisher's Exact Test that calculated the significance of survival function comparisons at multiple specific time points throughout the experiment, rather than for the overall lifespan. The results of the analysis are shown below in Tables 10-17.\nPhenotypic screening was carried out as described in EXAMPLE 2 for various individual compounds of the N357 formulation. […] Alpha lipoic acid was sourced from PureBulk™ USA as a racemic mix of R and S stereoisomers and was assigned a sample number of N198. Hesperidin was sourced from Sigma Aldrich at ≥80% purity and was assigned a sample number of N347. […]"}, "human PPARδ": {"target": "T1, human PPARδ (Homo sapiens, UniProt Q03181)", "T1 construct": "expressed in transfected cells; host or cells: CHO", "T1 sequence (Q03181 211-439 limits assumed)": "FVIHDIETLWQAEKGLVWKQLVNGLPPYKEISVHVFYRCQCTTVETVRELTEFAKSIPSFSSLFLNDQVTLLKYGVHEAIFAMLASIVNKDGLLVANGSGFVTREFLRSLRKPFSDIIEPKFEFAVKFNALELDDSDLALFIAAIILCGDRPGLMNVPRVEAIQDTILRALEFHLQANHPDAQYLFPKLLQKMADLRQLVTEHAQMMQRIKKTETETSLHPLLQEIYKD", "experiment": "PPARδ reporter cell assay, agonist mode", "format": "cell-based"}, "human PPARα": {"target": "T2, human PPARα (Homo sapiens, UniProt Q07869)", "T2 construct": "expressed in transfected cells; host or cells: CHO", "T2 sequence (Q07869 239-466 limits assumed)": "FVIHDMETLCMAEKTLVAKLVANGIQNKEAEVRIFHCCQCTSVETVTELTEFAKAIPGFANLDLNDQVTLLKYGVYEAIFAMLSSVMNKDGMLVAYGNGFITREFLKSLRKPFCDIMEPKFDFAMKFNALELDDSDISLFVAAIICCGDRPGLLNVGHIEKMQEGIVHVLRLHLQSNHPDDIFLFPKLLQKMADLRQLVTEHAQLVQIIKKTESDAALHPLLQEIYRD", "experiment": "PPARα reporter cell assay, agonist mode", "format": "cell-based"}, "human PPARγ": {"target": "T3, human PPARγ (Homo sapiens, UniProt P37231)", "T3 construct": "expressed in transfected cells; host or cells: CHO", "T3 sequence (P37231 238-503 limits assumed)": "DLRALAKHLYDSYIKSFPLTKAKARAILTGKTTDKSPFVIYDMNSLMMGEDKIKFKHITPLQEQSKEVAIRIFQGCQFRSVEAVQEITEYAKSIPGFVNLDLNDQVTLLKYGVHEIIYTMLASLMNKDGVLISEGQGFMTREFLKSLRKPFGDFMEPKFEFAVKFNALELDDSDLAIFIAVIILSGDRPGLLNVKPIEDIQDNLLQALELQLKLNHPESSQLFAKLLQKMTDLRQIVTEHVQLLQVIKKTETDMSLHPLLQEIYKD", "experiment": "PPARγ reporter cell assay, agonist mode", "format": "cell-based"}},
  "data": [
    {"smiles": "C[C@@H]1O[C@@H](OC[C@H]2O[C@@H](Oc3c(-c4ccc(O)c(O)c4)oc4cc(O)cc(O)c4c3=O)[C@H](O)[C@@H](O)[C@@H]2O)[C@H](O)[C@H](O)[C@H]1O", "note": "[Rutin, 2-(3,4-dihydroxyphenyl)-5,7-dihydroxy-3-[α-L-rhamnopyranosyl-(1→6)-β-D-glucopyranosyloxy]-4H-chromen-4-one]", "values": [
      {"measurement": "NF-κB % Inhibition", "setting": "human NF-κB; 1.11 μg/ml", "result": 10, "unit": "%"}
    ]},
    {"smiles": "O=c1c(O)c(-c2ccc(O)c(O)c2)oc2cc(O)cc(O)c12", "note": "[Quercetin, 2-(3,4-dihydroxyphenyl)-3,5,7-trihydroxy-4H-chromen-4-one]", "values": [
      {"measurement": "NF-κB % Inhibition", "setting": "human NF-κB; 0.84 μg/ml", "result": "−6", "unit": "%"},
      {"measurement": "Statistically Significant Result", "setting": "C. elegans strain CB5586", "result": "No statistical difference"},
      {"measurement": "effect on chronological lifespan", "setting": "C. elegans strain CB5586", "result": "significant negative effect on chronological lifespan"}
    ]},
    {"smiles": "COc1ccc([C@@H]2CC(=O)c3c(O)cc(O[C@@H]4O[C@H](CO[C@@H]5O[C@@H](C)[C@H](O)[C@@H](O)[C@H]5O)[C@@H](O)[C@H](O)[C@H]4O)cc3O2)cc1O", "note": "[N347, Hesperidin]", "values": [
      {"measurement": "extension of lifespan (Kaplan-Meier figure)", "setting": "C. elegans strain CB5586; 0.1 mg/ml", "result": "about 10%"},
      {"measurement": "% Change in Mean Lifespan", "setting": "C. elegans strain CB5586; 0.1 mg/ml compared to DMSO control", "result": "+10%"},
      {"measurement": "mean lifespan", "setting": "C. elegans strain CB5586; 0.1 mg/ml", "result": 14.55, "unit": "days"},
      {"measurement": "Statistically Significant Result", "setting": "C. elegans strain CB5586", "result": "No statistical difference"},
      {"measurement": "mean lifespan", "setting": "C. elegans strain CB5586; 10 mg/ml", "result": 14.19, "unit": "days"},
      {"measurement": "effect on chronological lifespan", "setting": "C. elegans strain CB5586", "result": "significant positive and dose-dependent increase of chronological lifespan"}
    ]},
    {"smiles": "COc1ccc([C@@H]2CC(=O)c3c(O)cc(O)cc3O2)cc1O", "note": "[Hesperetin, (S)-2,3-Dihydro-5,7-dihydroxy-2-(3-hydroxy-4-methoxyphenyl)-4H-1-benzopyran-4-one]", "values": [
      {"measurement": "PPARδ Fold-Activation", "setting": "human PPARδ; 0.043 μg/ml", "result": 1.1},
      {"measurement": "PPARδ Fold-Activation", "setting": "human PPARδ; 0.389 μg/ml", "result": 1.0},
      {"measurement": "PPARδ Fold-Activation", "setting": "human PPARδ; 1.167 μg/ml", "result": 1.1},
      {"measurement": "PPARδ Fold-Activation", "setting": "human PPARδ; 3.5 μg/ml", "result": 0.89},
      {"measurement": "PPARα Fold-Activation", "setting": "human PPARα; 0.043 μg/ml", "result": 1.4},
      {"measurement": "PPARα Fold-Activation", "setting": "human PPARα; 0.389 μg/ml", "result": 1.2},
      {"measurement": "PPARα Fold-Activation", "setting": "human PPARα; 1.167 μg/ml", "result": 1.0},
      {"measurement": "PPARα Fold-Activation", "setting": "human PPARα; 3.5 μg/ml", "result": 0.79},
      {"measurement": "PPARγ Fold-Activation", "setting": "human PPARγ; 0.043 μg/ml", "result": 1.0},
      {"measurement": "PPARγ Fold-Activation", "setting": "human PPARγ; 0.389 μg/ml", "result": 1.1},
      {"measurement": "PPARγ Fold-Activation", "setting": "human PPARγ; 1.167 μg/ml", "result": 1.1},
      {"measurement": "PPARγ Fold-Activation", "setting": "human PPARγ; 3.5 μg/ml", "result": 0.55}
    ]}
  ]
}
